# Test results published in ChEMBL document CHEMBL1133669 (J Med Chem, 2000).
# pKi: −log10 of the molar value.
# Experiments:
# Carbonic anhydrase 4 = molecular target: T1, Carbonic anhydrase 4 (Bos taurus, UniProt Q95323)
# T1 sequence (Q95323 whole entry): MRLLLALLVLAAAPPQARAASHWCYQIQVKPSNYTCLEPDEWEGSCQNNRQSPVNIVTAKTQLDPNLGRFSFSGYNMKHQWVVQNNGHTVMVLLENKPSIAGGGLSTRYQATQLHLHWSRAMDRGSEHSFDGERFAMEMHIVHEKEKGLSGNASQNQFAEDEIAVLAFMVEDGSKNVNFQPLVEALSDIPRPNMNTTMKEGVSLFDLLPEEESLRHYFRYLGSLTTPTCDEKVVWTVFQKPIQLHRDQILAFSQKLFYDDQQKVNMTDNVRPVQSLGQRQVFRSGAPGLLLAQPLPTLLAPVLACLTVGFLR
# Description: Inhibitory activity against bovine carbonic anhydrase IV (CA4), isolated from bovine lung microsomes
# Carbonic anhydrase 1 = Carbonic anhydrase 1 (Homo sapiens, UniProt P00915)
# Chain of Carbonic anhydrase 1 (P00915 whole entry): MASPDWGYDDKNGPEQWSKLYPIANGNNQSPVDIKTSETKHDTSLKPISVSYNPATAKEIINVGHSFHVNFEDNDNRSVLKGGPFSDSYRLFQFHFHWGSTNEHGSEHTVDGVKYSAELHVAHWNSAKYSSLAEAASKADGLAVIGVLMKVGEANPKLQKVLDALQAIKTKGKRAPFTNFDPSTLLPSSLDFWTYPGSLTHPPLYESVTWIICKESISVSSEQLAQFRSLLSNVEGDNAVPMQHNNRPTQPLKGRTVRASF
# Description: Inhibitory activity against human carbonic anhydrase I (CA1)
# Rattus norvegicus [1] = test: Renal excretion of bicarbonate after administration of 5 mg/kg in rats.; format: functional, Kidney
# Rattus norvegicus [2] = test: Renal excretion of bicarbonate after administration of 4 mg/kg in rats.; format: functional, Kidney
# Rattus norvegicus [3] = species: Rattus norvegicus; details: dose 10 mg/kg
pKi (Carbonic anhydrase 4),pKi (Carbonic anhydrase 1),Compound,Bicarbonate level (Rattus norvegicus [1]),Bicarbonate level (Rattus norvegicus [2]),Bicarbonate level (Rattus norvegicus [3])
7.52,7.96,CC(C)c1cc(-c2ccccc2)cc(C(C)C)[n+]1CC(=O)OCCOc1ccc2nc(S(N)(=O)=O)sc2c1,,,
8.00,7.85,CC(C)c1cc(-c2ccccc2)cc(C(C)C)[n+]1CC(=O)Nc1ccc(S(=O)(=O)Nc2nnc(S(N)(=O)=O)s2)cc1,,,
8.10,7.96,Cc1cc(-c2ccccc2)cc(C)[n+]1CC(=O)Nc1ccc(S(=O)(=O)/N=c2/sc(S(N)(=O)=O)nn2C)cc1,,,
7.77,6.69,Cc1cc(-c2ccccc2)cc(C)[n+]1CC(=O)Nc1nnc(S(N)(=O)=O)s1.[O-][Cl+3]([O-])([O-])[O-],38,,
7.30,7.46,Cc1cc(-c2ccccc2)cc(C)[n+]1CC(=O)Nc1nccc(Nc2ccc(S(N)(=O)=O)cc2)n1,,,
7.38,6.51,CC(C)c1cc(-c2ccccc2)cc(C(C)C)[n+]1CC(=O)Nc1cc(C(F)(F)F)c(S(N)(=O)=O)cc1S(N)(=O)=O,,,
8.00,7.89,CCc1cc(-c2ccccc2)cc(CC)[n+]1CC(=O)Nc1ccc(S(=O)(=O)/N=c2/sc(S(N)(=O)=O)nn2C)cc1.[O-][Cl+3]([O-])([O-])[O-],,40,
7.80,6.70,Cc1cc(-c2ccccc2)cc(C)[n+]1CC(=O)/N=c1/sc(S(N)(=O)=O)nn1C,,,
7.46,6.52,CC(C)c1cc(-c2ccccc2)cc(C(C)C)[n+]1CC(=O)/N=c1/sc(S(N)(=O)=O)nn1C.[O-][Cl+3]([O-])([O-])[O-],40,,
7.19,6.44,Cc1cc(C)[n+](CC(=O)Nc2cc(Cl)c(S(N)(=O)=O)cc2S(N)(=O)=O)c(C)c1,,,
7.24,6.49,Cc1cc(C)[n+](CC(=O)Nc2cc(C(F)(F)F)c(S(N)(=O)=O)cc2S(N)(=O)=O)c(C)c1,,,
7.72,8.00,Cc1cc(-c2ccccc2)cc(C)[n+]1CC(=O)Nc1ccc2nc(S(N)(=O)=O)sc2c1,,,
8.00,7.82,CC(C)c1cc(-c2ccccc2)cc(C(C)C)[n+]1CC(=O)Nc1ccc(S(=O)(=O)/N=c2/sc(S(N)(=O)=O)nn2C)cc1,,,

# More lines, now with the values behind:
Compound,pKi (Carbonic anhydrase 4),pKi (Carbonic anhydrase 1),Bicarbonate level (Rattus norvegicus [1]),Bicarbonate level (Rattus norvegicus [2]),Bicarbonate level (Rattus norvegicus [3])
Cc1cc(-c2ccccc2)cc(C)[n+]1CC(=O)OCCc1ccc(S(N)(=O)=O)cc1,7.16,5.96,,,
CC(C)c1cc(-c2ccccc2)cc(C(C)C)[n+]1CC(=O)OCc1ccc(S(N)(=O)=O)cc1,6.92,5.75,,,
Cc1cc(C)[n+](CC(=O)Nc2ccc3nc(S(N)(=O)=O)sc3c2)c(C)c1,7.30,7.82,,,
CC(C)c1cc(-c2ccccc2)cc(C(C)C)[n+]1CC(=O)Oc1ccc2nc(S(N)(=O)=O)sc2c1,7.41,7.92,,,
Cc1cc(-c2ccccc2)cc(C)[n+]1CC(=O)Nc1cc(Cl)c(S(N)(=O)=O)cc1S(N)(=O)=O,7.52,6.46,,,
CCc1cc(-c2ccccc2)cc(CC)[n+]1CC(=O)Nc1cc(Cl)c(S(N)(=O)=O)cc1S(N)(=O)=O,7.44,6.46,,,
Cc1cc(C)[n+](CC(=O)OCc2ccc(S(N)(=O)=O)cc2)c(C)c1,6.85,5.74,,,
Cc1cc(C)[n+](CC(=O)NCCC(=O)Nc2nnc(S(N)(=O)=O)s2)c(C)c1,7.74,7.37,,,
NS(=O)(=O)c1nnc(NS(=O)(=O)c2ccccc2)s1 [BENZOLAMIDE],,,,,115
